Results published in patent US8952024B2, “Herbicidal pyrimidone derivatives” (E I du Pont de Nemours and Company, priority 2009, dated 2015).

Columns and labels:
Type in all cases: in vivo
soybean (Glycine max) = experiment: Test B pre-/postemergence plant response
Description: (§1) Seeds of plant species selected from blackgrass (Alopecurus myosuroides), downy bromegrass (Bromus tectorum), green foxtail (Setaria viridis), Italian ryegrass (Lolium multiflorum), wheat (Triticum aestivum), wild oat (Avena fatua), deadnettle (henbit deadnettle, Lamium amplexicaule), galium (catchweed bedstraw, Galium aparine), bermudagrass (Cynodon dactylon), Surinam grass (Brachiaria decumbens), cocklebur (Xanthium strumarium), corn (Zea mays), large crabgrass (Digitaria sanguinalis), woolly cupgrass (Eriochloa villosa), giant foxtail (Setaria faberii), goosegrass (Eleusine indica), johnsongrass (Sorghum halepense), kochia (Kochia scoparia), lambsquarters (Chenopodium album), morningglory (Ipomoea coccinea), nightshade (eastern black nightshade, Solanum ptycanthum), yellow nutsedge (Cyperus esculentus), pigweed (Amaranthus retroflexus), ragweed (common ragweed, Ambrosia elatior), Russian thistle (Salsola kali), soybean (Glycine max), sunflower (common oilseed sunflower, Helianthus annuus) and velvetleaf (Abutilon theophrasti) were planted into a blend of loam soil and sand and treated preemergence with test compounds formulated in a non-phytotoxic solvent mixture which included a surfactant.
(§2) At the same time, plants selected from these crop and weed species and also winter barley (Hordeum vulgare), canarygrass (Phalaris minor), chickweed (Stellaria media) and windgrass (Apera spica-venti) were planted in pots containing Redi-Earth® planting medium (Scotts Company, 14111 Scottslawn Road, Marysville, Ohio 43041) comprising spaghnum peat moss, vermiculite, wetting agent and starter nutrients and treated with postemergence applications of some of the test chemicals formulated in the same manner. Plants ranged in height from 2 to 18 cm (1- to 4-leaf stage) for postemergence treatments.
(§3) Treated plants and controls were maintained in a greenhouse for 13 to 15 days, after which time all treated plants were visually evaluated and compared to controls. Plant response ratings, summarized in Table B, are based on a scale of 0 to 100 where 0 is no effect and 100 is complete control. A dash (-) response means no test result.

[1] = tested on: giant foxtail (Setaria faberii); experiment: Test B pre-/postemergence plant response
Description: as §1, §2, §3

[2] = tested on: bermudagrass (Cynodon dactylon); experiment: Test B pre-/postemergence plant response
Description: as §1, §2, §3

[3] = tested on: ragweed (common ragweed, Ambrosia elatior); experiment: Test B pre-/postemergence plant response
Description: as §1, §2, §3

[4] = tested on: morningglory (Ipomoea coccinea); experiment: Test B pre-/postemergence plant response
Description: as §1, §2, §3

[5] = tested on: wheat (Triticum aestivum); experiment: Test B pre-/postemergence plant response
Description: as §1, §2, §3

[6] = tested on: green foxtail (Setaria viridis); experiment: Test B pre-/postemergence plant response
Description: as §1, §2, §3

[7] = tested on: blackgrass (Alopecurus myosuroides); experiment: Test B pre-/postemergence plant response
Description: as §1, §2, §3

kochia (Kochia scoparia) = experiment: Test B pre-/postemergence plant response
Description: as §1, §2, §3

[8] = tested on: yellow nutsedge (Cyperus esculentus); experiment: Test B pre-/postemergence plant response
Description: as §1, §2, §3

[9] = tested on: downy bromegrass (Bromus tectorum); experiment: Test B pre-/postemergence plant response
Description: as §1, §2, §3

[10] = tested on: cocklebur (Xanthium strumarium); experiment: Test B pre-/postemergence plant response
Description: as §1, §2, §3

[11] = tested on: johnsongrass (Sorghum halepense); experiment: Test B pre-/postemergence plant response
Description: as §1, §2, §3

[12] = tested on: velvetleaf (Abutilon theophrasti); experiment: Test B pre-/postemergence plant response
Description: as §1, §2, §3

wild oat (Avena fatua) = experiment: Test B pre-/postemergence plant response
Description: as §1, §2, §3

[13] = tested on: canarygrass (Phalaris minor); experiment: Test B postemergence plant response
Method in brief: (§4)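 Plants grown in peat/vermiculite medium were sprayed postemergence at 2–18 cm height (1- to 4-leaf stage). After 13–15 days in the greenhouse, response was rated visually against untreated controls on a 0–100 scale (0 no effect, 100 complete control).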

[14] = tested on: windgrass (Apera spica-venti); experiment: Test B postemergence plant response
Method in brief: as §4

[15] = tested on: chickweed (Stellaria media); experiment: Test B postemergence plant response
Method in brief: as §4

[16] = 31 g ai/ha, postemergence, scale 0 to 100, 0 is no effect, 100 is complete control
[17] = Postemergence, 62 g ai/ha, scale 0 (no effect) to 100 (complete control), 13 to 15 days
[18] = Postemergence, 125 g ai/ha, visual rating after 13 to 15 days, scale 0 (no effect) to 100 (complete control)
[19] = Postemergence, 250 g ai/ha, scale 0 to 100 (0 no effect, 100 complete control)
[20] = Preemergence, 31 g ai/ha, scale 0 to 100 (0 no effect, 100 complete control)
[21] = Preemergence, 125 g ai/ha, scale 0 to 100, 0 no effect, 100 complete control
[22] = 250 g ai/ha, Preemergence, 0 to 100 scale
[23] = Preemergence, 62 g ai/ha, scale 0 to 100, 0 no effect, 100 complete control

In the case of `Cc1cccc(-n2c(-c3ccccc3)ncc(C(=O)C3=C(O)CCCC3=O)c2=O)c1F` [Compound 58], the “Plant response rating, Soybean” value (soybean (Glycine max); [16]) is reported as 85, the “Plant response rating, Soybean” value (soybean (Glycine max); [17]) is reported as 85 and the “Plant response rating, Soybean” value (soybean (Glycine max); [18]) is reported as 95. The “Plant response rating, Soybean” value (soybean (Glycine max); [19]) was 95, the “Plant response rating, Soybean” value (soybean (Glycine max); [20]) was 10 and the “Plant response rating, Soybean” value (soybean (Glycine max); [21]) was 85. For the same molecule, the “Plant response rating, Foxtail, Giant” value [1, 16] was 75, the “Plant response rating, Foxtail, Giant” value [1, 22] was 75 and the “Plant response rating, Foxtail, Giant” value [1, 17] was 85. For the same molecule, the “Plant response rating, Foxtail, Giant” value [1, 18] was 90, the “Plant response rating, Foxtail, Giant” value [1, 19] was 98 and the “Plant response rating, Foxtail, Giant” value [1, 20] was 10. The “Plant response rating, Foxtail, Giant” value [1, 23] was 20, the “Plant response rating, Foxtail, Giant” value [1, 21] was 75 and the “Plant response rating, Bermudagrass” value [2, 16] was 85. The “Plant response rating, Bermudagrass” value [2, 22] was 100, the “Plant response rating, Bermudagrass” value [2, 17] was 85 and the “Plant response rating, Bermudagrass” value [2, 18] was 98. For the same molecule, the “Plant response rating, Bermudagrass” value [2, 19] was 100, the “Plant response rating, Bermudagrass” value [2, 20] was 98 and the “Plant response rating, Bermudagrass” value [2, 23] was 98. For the same molecule, the “Plant response rating, Bermudagrass” value [2, 21] was 100, the “Plant response rating, Ragweed” value [3, 16] was 80 and the “Plant response rating, Ragweed” value [3, 17] was 85. The “Plant response rating, Ragweed” value [3, 18] was 90, the “Plant response rating, Ragweed” value [3, 19] was 98 and the “Plant response rating, Ragweed” value [3, 20] was 20. For the same molecule, the “Plant response rating, Ragweed” value [3, 23] was 75, the “Plant response rating, Ragweed” value [3, 21] was 85 and the “Plant response rating, Morningglory” value [4, 16] was 65. For the same molecule, the “Plant response rating, Morningglory” value [4, 17] was 80, the “Plant response rating, Morningglory” value [4, 18] was 90 and the “Plant response rating, Morningglory” value [4, 19] was 90. The “Plant response rating, Morningglory” value [4, 20] was 0, the “Plant response rating, Morningglory” value [4, 23] was 0 and the “Plant response rating, Morningglory” value [4, 21] was 55. The “Plant response rating, Wheat” value [5, 16] was 0, the “Plant response rating, Wheat” value [5, 17] was 0 and the “Plant response rating, Wheat” value [5, 18] was 0. For the same molecule, the “Plant response rating, Wheat” value [5, 19] was 0, the “Plant response rating, Wheat” value [5, 20] was 0 and the “Plant response rating, Wheat” value [5, 23] was 0. For the same molecule, the “Plant response rating, Wheat” value [5, 21] was 0, the “Plant response rating, Foxtail, Green” value [6, 16] was 75 and the “Plant response rating, Foxtail, Green” value [6, 22] was 100. For the same molecule, the “Plant response rating, Foxtail, Green” value [6, 17] was 90, the “Plant response rating, Foxtail, Green” value [6, 18] was 98 and the “Plant response rating, Foxtail, Green” value [6, 19] was 100. For the same molecule, the “Plant response rating, Foxtail, Green” value [6, 20] was 0, the “Plant response rating, Foxtail, Green” value [6, 23] was 5 and the “Plant response rating, Foxtail, Green” value [6, 21] was 70. The “Plant response rating, Blackgrass” value [7, 16] was 5, the “Plant response rating, Blackgrass” value [7, 22] was 30 and the “Plant response rating, Blackgrass” value [7, 17] was 10. For the same molecule, the “Plant response rating, Blackgrass” value [7, 18] was 20, the “Plant response rating, Blackgrass” value [7, 19] was 40 and the “Plant response rating, Blackgrass” value [7, 20] was 0. The “Plant response rating, Blackgrass” value [7, 23] was 0, the “Plant response rating, Blackgrass” value [7, 21] was 5 and the “Plant response rating, Kochia” value (kochia (Kochia scoparia); [16]) was 0. The “Plant response rating, Kochia” value (kochia (Kochia scoparia); [17]) was 10, the “Plant response rating, Kochia” value (kochia (Kochia scoparia); [18]) was 25 and the “Plant response rating, Kochia” value (kochia (Kochia scoparia); [19]) was 25. The “Plant response rating, Nutsedge, Yellow” value [8, 16] was 25, the “Plant response rating, Nutsedge, Yellow” value [8, 17] was 40 and the “Plant response rating, Nutsedge, Yellow” value [8, 18] was 55. For the same molecule, the “Plant response rating, Nutsedge, Yellow” value [8, 19] was 75, the “Plant response rating, Nutsedge, Yellow” value [8, 20] was 20 and the “Plant response rating, Nutsedge, Yellow” value [8, 23] was 75. The “Plant response rating, Nutsedge, Yellow” value [8, 21] was 75, the “Plant response rating, Bromegrass, Downy” value [9, 16] was 40 and the “Plant response rating, Bromegrass, Downy” value [9, 22] was 0. For the same molecule, the “Plant response rating, Bromegrass, Downy” value [9, 17] was 40, the “Plant response rating, Bromegrass, Downy” value [9, 18] was 45 and the “Plant response rating, Bromegrass, Downy” value [9, 19] was 50. For the same molecule, the “Plant response rating, Bromegrass, Downy” value [9, 20] was 0, the “Plant response rating, Bromegrass, Downy” value [9, 23] was 0 and the “Plant response rating, Bromegrass, Downy” value [9, 21] was 0. For the same molecule, the “Plant response rating, Cocklebur” value [10, 16] was 85, the “Plant response rating, Cocklebur” value [10, 22] was 65 and the “Plant response rating, Cocklebur” value [10, 17] was 85. The “Plant response rating, Cocklebur” value [10, 18] was 85, the “Plant response rating, Cocklebur” value [10, 19] was 90 and the “Plant response rating, Cocklebur” value [10, 20] was 0. For the same molecule, the “Plant response rating, Cocklebur” value [10, 23] was 0, the “Plant response rating, Cocklebur” value [10, 21] was 10 and the “Plant response rating, Johnsongrass” value [11, 16] was 50. The “Plant response rating, Johnsongrass” value [11, 22] was 85, the “Plant response rating, Johnsongrass” value [11, 17] was 85 and the “Plant response rating, Johnsongrass” value [11, 18] was 98. The “Plant response rating, Johnsongrass” value [11, 19] was 100, the “Plant response rating, Johnsongrass” value [11, 20] was 10 and the “Plant response rating, Johnsongrass” value [11, 23] was 20. The “Plant response rating, Johnsongrass” value [11, 21] was 80, the “Plant response rating, Velvetleaf” value [12, 16] was 75 and the “Plant response rating, Velvetleaf” value [12, 17] was 75. The “Plant response rating, Velvetleaf” value [12, 18] was 85, the “Plant response rating, Velvetleaf” value [12, 19] was 95 and the “Plant response rating, Velvetleaf” value [12, 20] was 75. For the same molecule, the “Plant response rating, Velvetleaf” value [12, 23] was 80, the “Plant response rating, Velvetleaf” value [12, 21] was 95 and the “Plant response rating, Oat, Wild” value (wild oat (Avena fatua); [16]) was 45. For the same molecule, the “Plant response rating, Oat, Wild” value (wild oat (Avena fatua); [17]) was 60, the “Plant response rating, Oat, Wild” value (wild oat (Avena fatua); [18]) was 60 and the “Plant response rating, Oat, Wild” value (wild oat (Avena fatua); [19]) was 85. The “Plant response rating, Oat, Wild” value (wild oat (Avena fatua); [20]) was 0, the “Plant response rating, Oat, Wild” value (wild oat (Avena fatua); [23]) was 0 and the “Plant response rating, Oat, Wild” value (wild oat (Avena fatua); [21]) was 0. For the same molecule, the “Plant response rating, Canarygrass” value [13, 16] was 60, the “Plant response rating, Canarygrass” value [13, 17] was 60 and the “Plant response rating, Canarygrass” value [13, 18] was 80. For the same molecule, the “Plant response rating, Canarygrass” value [13, 19] was 85, the “Plant response rating, Windgrass” value [14, 16] was 35 and the “Plant response rating, Windgrass” value [14, 17] was 50. The “Plant response rating, Windgrass” value [14, 18] was 60, the “Plant response rating, Windgrass” value [14, 19] was 70 and the “Plant response rating, Chickweed” value [15, 16] was 70. For the same molecule, the “Plant response rating, Chickweed” value [15, 17] was 80, the “Plant response rating, Chickweed” value [15, 18] was 90 and the “Plant response rating, Chickweed” value [15, 19] was 90.
